From US5245077A, “L-buthionine-S-sulfoximine and methods of making” (Cornell Research Foundation Inc., priority 1992, dated 1993)
“Also recorded” adds a separate entry of the source. Read-outs that look alike come from different tables or passages of the source. Each block holds one molecule with its values, some of them ahead of it.

Legend:
Trypanosoma b. brucei = conditions: mice infected with Trypanosoma b. brucei; cited from earlier work
[1] = molecular target: T1, gamma-glutamylcysteine synthetase (Rattus norvegicus, UniProt P19468); experiment: Inhibition of gamma-glutamylcysteine synthetase (coupled PK/LDH assay, NADH absorbance at 340 mμ); type: biochemical; conditions: for Ki / binding mode: versus glutamate; for Ki: Lineweaver-Burk plot
T1 sequence (P19468 1-637): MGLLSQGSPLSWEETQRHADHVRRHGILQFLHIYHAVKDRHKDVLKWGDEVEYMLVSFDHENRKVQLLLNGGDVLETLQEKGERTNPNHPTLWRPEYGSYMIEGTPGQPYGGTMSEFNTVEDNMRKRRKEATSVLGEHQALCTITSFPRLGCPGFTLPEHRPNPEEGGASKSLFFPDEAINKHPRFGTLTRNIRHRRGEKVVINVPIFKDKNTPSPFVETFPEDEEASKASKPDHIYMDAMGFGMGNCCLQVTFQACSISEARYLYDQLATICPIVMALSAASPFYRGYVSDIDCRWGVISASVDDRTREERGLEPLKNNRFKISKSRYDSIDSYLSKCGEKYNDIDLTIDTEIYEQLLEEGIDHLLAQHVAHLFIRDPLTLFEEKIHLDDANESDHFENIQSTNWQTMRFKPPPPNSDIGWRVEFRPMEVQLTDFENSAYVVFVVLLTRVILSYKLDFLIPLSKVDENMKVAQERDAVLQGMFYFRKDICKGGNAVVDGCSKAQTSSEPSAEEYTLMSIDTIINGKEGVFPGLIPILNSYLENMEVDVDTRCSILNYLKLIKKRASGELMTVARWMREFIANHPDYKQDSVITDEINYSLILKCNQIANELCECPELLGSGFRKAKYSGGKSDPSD
T1 sequence (P48508 1-274 partner): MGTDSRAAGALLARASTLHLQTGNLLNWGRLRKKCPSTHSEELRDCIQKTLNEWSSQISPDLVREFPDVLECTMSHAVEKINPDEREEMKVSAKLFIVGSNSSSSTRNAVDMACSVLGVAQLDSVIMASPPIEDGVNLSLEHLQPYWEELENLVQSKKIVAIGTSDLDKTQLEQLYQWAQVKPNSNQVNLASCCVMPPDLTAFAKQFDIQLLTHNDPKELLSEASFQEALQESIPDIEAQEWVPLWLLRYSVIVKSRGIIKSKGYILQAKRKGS
Procedure: L-buthionine-S-sulfoximine, L-buthionine-R-sulfoximine and D-buthionine-SR-sulfoximine were assayed for ability to inhibit gamma-glutamylcysteine synthetase.
The assay procedure used is similar to that described in Griffith, O. W., J. Biol. Chem. 257, 13704-13712 (1982).
The assay is based on the following reactions wherein GS is used to denote gamma-glutamylcysteine synthetase, PK is used to denote pyruvate kinase, LDH is used to denote lactate dehydrogenase, NADH is used to denote reduced beta-nicotinamide adenine dinucleotide, NAD^+ is used to denote oxidized beta-nictoninamide adenine dinucleotide, ATP is used to denote adenosine triphosphate, ADP is used to denote adenosine diphosphate, and Pi is used to denote inorganic phosphate.
The assay is based on the fact that the velocity of the reaction to produce gamma-glutamylaminobutyrate is reduced to the extent that GS is inhibited. […] Reactions (2) and (3) are a detection system for ADP wherein ADP, as it is produced, reacts with phosphoenolpyruvate to produce pyruate, which reacts with NADH to produce NAD^+. […] Thus, progress of the GS reaction results in a decrease in the absorbence of the solution at 340 mμ and, if GS is inhibited, the decrease in absorbence at 340 mμ occurs at a slower rate. Such studies are carried out at several concentrations of inhibitor.
Each test for inhibition was carried out in a cuvette containing in a final volume of 1 ml the following: 150 mM Tris-HCl buffer (pH 8.2), 75 mM KCl, 10 mM ATP, 5 mM phosphoenolpyruvate, 25 mM MgCl2, 1 to 5 mM L-glutamate, 10 mM α-amino-L-butyrate, 0.3 mM NADH, 0.2 mM EDTA, 10 International Units of PK, 10 International Units of LDH and 0.03 International Units of GS. […] Four sets of runs were made with 1 mM glutamate; 4 sets of runs were made with 1.7 mM glutamate; 4 sets of runs was made with 2.5 mM glutamate and 4 sets of runs were made with 5 mM glutamate. At each glutamate concentration, one set of runs were made with no inhibitor. For studies with L-buthionine-R-sulfoximine the other 3 sets of runs contained 0.05, 0.1, 0r 0.2 mM inhibitor. For studies with D-buthionine-SR-sulfoximine, the other 3 sets of runs contained 2, 5 or 10 mM inhibitor.
For each test run the temperature was kept at 37° C. and GS was added last to start the reaction. The reaction velocity was followed from the decrease in absorbence at 340 mμ (a decrease of 0.62 in optical density indicates 0.1 μmol of product was formed).
A Lineweaver-Burk plot was then prepared.
Complete inhibition was obtained in less than 5 min with either concentration tested.

[2] = test system: tissue glutathione levels; experiment: Glutathione depletion in mice (tissue glutathione levels); type: in vivo; conditions: for glutathione level of kidney / glutathione level of liver / glutathione level of pancreas: 2 hours after injection; for glutathione level of kidney: L-SR and D-SR 0.4 mmole/kg, L-S and L-R 0.2 mmole/kg; for depletion of glutathione in liver (in words) / depletion of glutathione in pancreas (in words): L-R 0.2 mmole/kg, D-SR 0.4 mmole/kg; for glutathione level of liver / glutathione level of pancreas: SR 0.4 mmole/kg, S 0.2 mmole/kg
Procedure: Tissue glutathione levels were determined as described in Griffith, O. W., Anal. Biochem. 106, 207-212, (1980).
Thirty two mice were given physiological saline, 4 mice were given 0.4 mmole/kg of L-buthionine-SR-sulfoximine, 4 mice were given 0.2 mmole/kg of L-buthionine-S-sulfoximine, 4 mice were given 0.2 mmoles/kg of L-buthionine-R-sulfoximine and 4 mice were given 0.4 mmole/kg or D-buthionine-SR-sulfoximine. All injections were given intraperitoneally. Two hours after injection, the mice were killed, and the glutathione levels in the brain, liver, pancreas, and kidney were determined.

[3] = test system: L-glutamylcysteine uptake; conditions: kidney; cited from earlier work
[4] = Transport of 35S-labelled isomers into tissues (tissue content); type: in vivo, mice; conditions: 2 mmole/kg i.p., 2 hours
Procedure: The transport of L-buthionine-S-sulfoximine and L-buthionine-R-sulfoximine into tissues was examined using preparations of each isomer radiolabeled with ^35 S.
L-[^35 S]-Buthionine-SR-sulfoximine was prepared from L-[^35 S]methionine as described previously (Griffith, O. W., J. Biol. Chem. 257, 13704-13712 (1982)). The preparation was separated into L-[^35 S]-buthionine-S-sulfoximine and L-[^35 S]-buthionine-R-sulfoximine by chromatography using Cu^++ D-proline buffer as described in Example III.
Twelve mice were injected intraperitoneally with L-[^35 S]-buthionine-S-sulfoximine and 12 mice were injected intraperitoneally with L-buthionine-R-sulfoximine. For all mice the dose was 2 mmole/kg. After 2 hours the mice were sacrificed, and the radioactivity contained in the various tissues was determined by liquid scintillation counting. From that determination and from the known specific activity of the compounds injected, the tissue content of either L-buthionine-S-sulfoximine or L-buthionine-R-sulfoximine was calculated. The results in μmole/gm tissue were as follows (tissue, content of L-buthionine-S-sulfoximine, content of L-buthionine-R-sulfoximine): brain, 0.11, 0.17; lung, 0.53, 0.55; heart, 0.33, 0.49; liver, 0.11, 0.16; spleen 0.51, 0.59; small intestine, 0.34, 0.39; large intestine, 0.25, 0.20; testes, 0.45, 0.50; skeletal muscle, 0.18, 0.24.

[5] = test system: Glutathione synthesis in tissues and cells; conditions: in vitro or in vivo; cited from earlier work
Tumors in mice = conditions: with ionizing radiation and various chemotherapeutic agents; cited from earlier work
cystine transport = conditions: cited from earlier work
[6] = molecular target: T1, gamma-glutamylcysteine synthetase; conditions: cited from earlier work

SMILES: CCCCS(=N)(=O)CCC(N)C(=O)O (racemic) [DL-buthionine-SR-sulfoximine]
survival of infected mice (in words) (Trypanosoma b. brucei): extended survival and in some cases to be cured

inhibition of gamma-glutamylcysteine synthetase (in words) [1]: weak and reversible inhibitors
reversibility of inhibition [1]: reversible inhibitor
Ki ([1]; 37° C., pH 8.2): 5200 µM
binding mode [1]: competitive with glutamate
SMILES: CCCCS(=N)(=O)CC[C@@H](N)C(=O)O (stereo partly drawn) [D-buthionine-SR-sulfoximine, reference compound]
glutathione level of kidney ([2]; kidney, i.p.): 70 % of control
depletion of glutathione in liver (in words) ([2]; i.p., 2 hours): did not cause significant depletion of glutathione
depletion of glutathione in pancreas (in words) ([2]; i.p., 2 hours): did not cause significant depletion of glutathione

SMILES: CCCCS(=O)(=O)CC[C@H](N)C(=O)O [L-buthionine sulfone]
L-glutamylcysteine uptake from the tubule (in words) [3]: inhibition of L-glutamylcysteine uptake from the tubule

SMILES: CCCC[S@@](=N)(=O)CC[C@H](N)C(=O)O [L-buthionine-R-sulfoximine]
inhibition of gamma-glutamylcysteine synthetase (in words) [1]: weak and reversible inhibitors
reversibility of inhibition [1]: reversible inhibitor
Ki ([1]; 37° C., pH 8.2): 110 µM
binding mode [1]: competitive with glutamate
depletion of glutathione in brain (in words) ([2]; brain, i.p., 2 hours): no significant effect on glutathione levels
effect on glutathione level in kidney (in words) ([2]; kidney): only a small effect on glutathione level in kidney
glutathione level of kidney ([2]; kidney, i.p.): 87 % of control
depletion of glutathione in liver (in words) ([2]; i.p., 2 hours): no significant effect on glutathione levels; also recorded: did not cause significant depletion of glutathione
depletion of glutathione in pancreas (in words) ([2]; i.p., 2 hours): no significant effect on glutathione levels; also recorded: did not cause significant depletion of glutathione
tissue content, brain [4]: 0.17 μmole/gm tissue
uptake or retention by some tissues (in words) ([4]; e.g., heart and liver): more effectively than L-buthionine-S-sulfoximine
tissue content, heart [4]: 0.49 μmole/gm tissue
tissue content, large intestine [4]: 0.20 μmole/gm tissue
tissue content, liver [4]: 0.16 μmole/gm tissue
tissue content, lung [4]: 0.55 μmole/gm tissue
tissue content, skeletal muscle [4]: 0.24 μmole/gm tissue
tissue content, small intestine [4]: 0.39 μmole/gm tissue
tissue content, spleen [4]: 0.59 μmole/gm tissue
tissue content, testes [4]: 0.50 μmole/gm tissue

SMILES: CCCC[S@](=N)(=O)CC[C@H](N)C(=O)O [L-buthionine-S-sulfoximine]
inhibition of gamma-glutamylcysteine synthetase (in words) [1]: strongly and irreversibly inhibits
reversibility of inhibition [1]: irreversible inhibition
time to complete inhibition ([1]; 0.01 or 0.1 mM inhibitor, either concentration): less than 5 min
reversal of inhibition by dilution or gel permeation chromatography ([1]; buffers containing ATP and MgCl2): could not be reversed
depletion of tissue glutathione levels in several tissues (in words) ([2]; compared with L-buthionine-SR-sulfoximine at twice the dose): as effectively as L-buthionine-SR-sulfoximine given at twice the dose
glutathione level of kidney ([2]; kidney, i.p.): 27 % of control
glutathione level of liver ([2]; i.p.): 41 % of control
glutathione level of pancreas ([2]; i.p.): about 42 % of control
tissue content, brain [4]: 0.11 μmole/gm tissue
tissue content, heart [4]: 0.33 μmole/gm tissue
tissue content, large intestine [4]: 0.25 μmole/gm tissue
tissue content, liver [4]: 0.11 μmole/gm tissue
tissue content, lung [4]: 0.53 μmole/gm tissue
tissue content, skeletal muscle [4]: 0.18 μmole/gm tissue
tissue content, small intestine [4]: 0.34 μmole/gm tissue
tissue content, spleen [4]: 0.51 μmole/gm tissue
tissue content, testes [4]: 0.45 μmole/gm tissue

SMILES: CCCCS(=N)(=O)CC[C@H](N)C(=O)O (stereo partly drawn) [L-buthionine-SR-sulfoximine, L-(S-n-butyl)homocysteine-SR-sulfoximine]
glutathione level of kidney ([2]; kidney, i.p.): 27 % of control
glutathione level of liver ([2]; i.p.): 52 % of control
glutathione level of pancreas ([2]; i.p.): about 42 % of control
glutathione synthesis in tissues and cells (in words) [5]: Glutathione synthesis is decreased
effect on tumors in mice (in words) (Tumors in mice): become glutathione depleted and more susceptible to the cytotoxic effects of ionizing radiation and various chemotherapeutic agents
effect on cystine transport (in words) (cystine transport): deleterious effect on cystine transport
inhibition of gamma-glutamylcysteine synthetase (in words) [6]: potent and specific inhibitor of gamma-glutamylcysteine synthetase

SMILES: C[S@](=N)(=O)CC[C@H](N)C(=O)O [L-methionine-S-sulfoximine]
inhibition of gamma-glutamylcysteine synthetase (in words) [6]: the only diastereomer of DL-methionine-SR-sulfoximine that inhibits gamma-glutamylcysteine synthetase

SMILES: N[C@@H](CCC(=O)O)C(=O)O [glutamate, L-glutamate]
Km ([1]; read-out: Km for glutamate, without inhibitor, 37° C., pH 8.2): 1700 ± 300 µM
